Test system: 563 solid tumor cell lines
Test: Luminex assay in PRISM, 5 days treatment (AUC)
Assay type: cell-based
Design: AUC: scale not given here
Protocol: The AUC values provided in Table 80 below were calculated based on the Median Fluorescent Intensity values, the primary read out of the Luminex assay in PRISM. The following parameters were used in this assay: • 8 point dose was used in triplicate • max concentration of 10 μM was used with serial 4-fold dilutions (low of […]) • 563 adherent cell lines in 23 pools. • treatment duration was 5 days.

Which results are given for `O=C1CCC(N2Cc3cc(CNC(=O)C(F)(F)c4ccc(Cl)cc4)ccc3C2=O)C(=O)N1` (stereo not shown) [Compound 1, 2-(4-chlorophenyl)-N-((2-(2,6-dioxopiperidin-3-yl)-1-oxoisoindolin-5-yl)methyl)-2,2-difluoroacetamide]?
AUC (MON_SOFT_TISSUE): 0.789; AUC (MPP89_PLEURA): 0.822; AUC (NB1_AUTONOMIC_GANGLIA): 0.096; AUC (NCIH23_LUNG): 0.951; AUC (NCIH28_PLEURA): 0.936; AUC (NCIH226_LUNG): 0.637; AUC (NCIH322_LUNG): 0.714; AUC (NCIH441_LUNG): 0.755; AUC (NCIH446_LUNG): 0.820; AUC (NCIH460_LUNG): 0.917; AUC (NCIH520_LUNG): 0.562; AUC (NCIH522_LUNG): 0.974; AUC (NCIH596_LUNG): 0.893; AUC (NCIH647_LUNG): 0.957; AUC (NCIH650_LUNG): 0.854; AUC (NCIH661_LUNG): 0.819; AUC (NCIH747_LARGE_INTESTINE): 0.836; AUC (NCIH838_LUNG): 0.834; AUC (NCIH841_LUNG): 0.848; AUC (NCIH1048_LUNG): 0.116; AUC (NCIH1299_LUNG): 0.806; AUC (NCIH1339_LUNG): 0.815; AUC (NCIH1355_LUNG): 0.878; AUC (NCIH1373_LUNG): 0.959; AUC (NCIH1435_LUNG): 0.862; AUC (NCIH1437_LUNG): 0.882; AUC (NCIH1563_LUNG): 0.140; AUC (NCIH1568_LUNG): 0.790; AUC (NCIH1573_LUNG): 0.995; AUC (NCIH1581_LUNG): 0.552; AUC (NCIH1623_LUNG): 0.997; AUC (NCIH1648_LUNG): 0.828; AUC (NCIH1650_LUNG): 0.835; AUC (NCIH1693_LUNG): 0.949; AUC (NCIH1703_LUNG): 0.879; AUC (NCIH1793_LUNG): 0.290; AUC (NCIH1915_LUNG): 0.876; AUC (NCIH1944_LUNG): 0.911; AUC (NCIH1975_LUNG): 0.866; AUC (NCIH2009_LUNG): 0.760; AUC (NCIH2030_LUNG): 0.839; AUC (NCIH2073_LUNG): 0.878; AUC (NCIH2077_LUNG): 0.855; AUC (NCIH2087_LUNG): 0.866; AUC (NCIH2110_LUNG): 0.837; AUC (NCIH2126_LUNG): 0.820; AUC (NCIH2170_LUNG): 0.887; AUC (NCIH2172_LUNG): 0.794; AUC (NCIH2196_LUNG): 0.870; AUC (NCIH2228_LUNG): 0.851; AUC (NCIH2347_LUNG): 0.324; AUC (NCIH2444_LUNG): 0.620; AUC (NCIH2452_PLEURA): 0.843; AUC (NCIN87_STOMACH): 0.881; AUC (NUGC3_STOMACH): 0.261; AUC (NUGC4_STOMACH): 0.839; AUC (OAW28_OVARY): 0.814; AUC (OC314_OVARY): 0.915; AUC (OC316_OVARY): 0.872; AUC (OE19_OESOPHAGUS): 0.808; AUC (OE21_OESOPHAGUS): 0.893; AUC (OE33_OESOPHAGUS): 0.847; AUC (ONS76_CENTRAL_NERVOUS_SYSTEM): 0.811; AUC (OSRC2_KIDNEY): 0.842; AUC (OV7_OVARY): 0.597; AUC (OV56_OVARY): 0.874; AUC (OV90_OVARY): 0.939; AUC (OVCAR8_OVARY): 0.844; AUC (OVISE_OVARY): 0.630; AUC (OVKATE_OVARY): 0.851; AUC (OVSAHO_OVARY): 0.617; AUC (OVTOKO_OVARY): 0.907; AUC (PANC1_PANCREAS): 0.781; AUC (PANC0203_PANCREAS): 0.927; AUC (PANC0327_PANCREAS): 0.813; AUC (PANC0403_PANCREAS): 0.877; AUC (PANC0504_PANCREAS): 0.245; AUC (PANC1005_PANCREAS): 0.540; AUC (PATU8902_PANCREAS): 0.145; AUC (PATU8988T_PANCREAS): 0.075; AUC (PC3_PROSTATE): 0.735; AUC (PC14_LUNG): 0.500; AUC (PECAPJ15_UPPER_AERODIGESTIVE_TRACT): 0.877; AUC (PECAPJ41CLONED2_UPPER_AERODIGESTIVE_TRACT): 0.719; AUC (PECAPJ49_UPPER_AERODIGESTIVE_TRACT): 0.843; AUC (PEDS005TADH_KIDNEY): 0.448; AUC (PEDS015T_SOFT_TISSUE): 0.814; AUC (PK1_PANCREAS): 0.859; AUC (PK45H_PANCREAS): 0.843; AUC (PK59_PANCREAS): 0.778; AUC (PLCPRF5_LIVER): 0.833; AUC (PSN1_PANCREAS): 0.820; AUC (QGP1_PANCREAS): 0.976; AUC (RCC10RGB_KIDNEY): 0.801; AUC (RDES_BONE): 0.571; AUC (RD_SOFT_TISSUE): 0.769; AUC (RERFLCAD1_LUNG): 0.782; AUC (RERFLCAD2_LUNG): 0.874; AUC (RERFLCAI_LUNG): 0.859; AUC (RERFLCKJ_LUNG): 0.824; AUC (RKN_SOFT_TISSUE): 0.988; AUC (RKO_LARGE_INTESTINE): 0.847; AUC (RL952_ENDOMETRIUM): 0.403; AUC (RMUGS_OVARY): 0.857; AUC (RPMI7951_SKIN): 0.786; AUC (RT112_URINARY_TRACT): 0.766; AUC (RVH421_SKIN): 0.839; AUC (S117_SOFT_TISSUE): 0.866; AUC (SBC5_LUNG): 0.948; AUC (SCC25_UPPER_AERODIGESTIVE_TRACT): 0.782; AUC (SF126_CENTRAL_NERVOUS_SYSTEM): 0.862; AUC (SF295_CENTRAL_NERVOUS_SYSTEM): 0.917; AUC (SF539_CENTRAL_NERVOUS_SYSTEM): 0.888; AUC (SH4_SKIN): 0.537; AUC (SH10TC_STOMACH): 0.886

Source: patent US20190030018A1 (Celgene Corporation, priority 2017, published 2019)
